According to US7999009B2, “Strontium salts of sulphonic acids, a process for their preparation and pharmaceutical compositions containing them” (Les Laboratoires Servier, priority 2006, dated 2011):

Legend:
[1] = tested on: fragments of bovine cartilage; experiment: In vitro inhibition of bovine cartilage catabolism (cartilage fragments stimulated with TNFα and oncostatin M, 21 days); format: cell-based; settings: for percentage inhibition of the degradation of the proteins in the cartilage: D21; for percentage inhibition of the degradation of the GAGs: D21, DMB technique
Method: The study was carried out on fragments of bovine cartilage in culture medium (96-well plate), the degradation of which is stimulated by adding TNFα and oncostatin M (Schaller, S., Henriksen, K., Hoegh-Andersen, P., Sondergaard, B. C., Sumer, E. U., Tanko, L. B., Qvist, P., Karsdal, M. A. In vitro, ex vivo, and in vivo methodological approaches for studying therapeutic targets of osteoporosis and degenerative joint diseases: how biomarkers can assist? Assay. Drug Dev. Technol. 3, 553-580 (2005).
(§1) The duration of the cultivation period is 21 days (culture medium changed every 2 days). A group not treated with TNFα and oncostatin M constitutes the control group. Five lots of stimulated cartilage fragments were treated with the compound of Example 1, each at a different dose: 0.01; 0.1; 1; 3 and 10 mM. 5 replications were carried out for each dose.
On D19, the concentration of CTX II (fragment of type II collagen resulting from the degradation of that collagen by metalloproteases) in the culture medium is measured using an ELISA technique. That parameter is expressed in ng/ml/mg of cartilage.
On D21, the following are measured in the cartilage remaining at the end of cultivation: • the quantity of proteins, using the kit marketed by Biorad. For the groups treated with the compound of Example 1, the results of this parameter are expressed as the percentage inhibition of the degradation of the proteins in the cartilage of the untreated control group; • and the quantity of glycosaminoglycans (GAGs), using the […] (DMB). That parameter, too, is expressed as a percentage inhibition of the degradation of the GAGs evaluated in the control group after culturing for 21 days. Results

[2] = tested on: fragments of bovine cartilage; experiment: Alamar blue toxicity test in the bovine cartilage culture; format: cell-based; settings: 21 days of cultivation, whatever the dose (0.01-10 mM)
Method: as §1
The treatment is moreover well tolerated by the cells for the 21 days of cultivation (toxicity test employed: Alamar blue—negative whatever the dose).

Compound: O=S(=O)([O-])CCCS(=O)(=O)[O-].[Sr+2] [Example 1, Strontium 1,3-propanedisulphonate]
- IC50 ([1]; D19, ELISA, TNFα + oncostatin M stimulated cartilage, significant (p<0.001), dose-dependent, read-out: inhibition of the salting out of CTX II in the culture medium (IC50)): 3.5 mM
- percentage inhibition of the degradation of the proteins in the cartilage ([1]; dose 1 mM): 22%
- percentage inhibition of the degradation of the GAGs ([1]; dose 1 mM): 4%
- percentage inhibition of the degradation of the proteins in the cartilage ([1]; dose 3 mM): 41%
- percentage inhibition of the degradation of the GAGs ([1]; dose 3 mM): 8%
- percentage inhibition of the degradation of the GAGs ([1]; dose 10 mM, **p < 0.01): 26%**
- percentage inhibition of the degradation of the proteins in the cartilage ([1]; dose 10 mM, *p < 0.05): 55%*
- toxicity test Alamar blue (tolerance by the cells) [2]: negative
